For one assay, the system named is AIMP2. Briefly: AIMP2 level in mouse striatum and ventral midbrain after i.p. hydrocortisone (western blot). The format is in vivo. The conditions noted are these: hydrocortisone 7 days vs DMSO. As to the method:
The head skin was closed by suturing and wound healing and recovery were monitored following surgery. […] The brain was removed and processed for immunohistochemistry. […] After homogenization, samples were rotated at 4° C. for 30 min for complete lysis, then the homogenate was centrifuged at 52,000 rpm for 20 min, and the resulting fractions were collected. Protein levels were quantified using the BCA kit (Pierce) with BSA standards and analyzed by immunoblot.
The densitometric analyses of the bands were performed using ImageJ (NIH, http://rsb.info.nih.gov/ij/).
In general terms: Immunoblotting shows a protein as a band on a membrane.

The subject of assay [1] is tyrosine hydroxylase (TH)-positive dopaminergic neurons in the substantia nigra pars compacta. Briefly: 6-OHDA-induced PD mouse model, stereological count of TH-positive dopaminergic neurons. The format is in vivo. Conditions: hydrocortisone pretreatment 0.4 mg/kg i.p. daily; 6-OHDA 8 ug intrastriatal on day 7. The method, then: Hydrocortisone was given to mice intraperitoneally. Hydrocortisone administration began on day 1 and continued for 11 days followed by stereological assessment of dopamine neuron counts. 6-OHDA intrastriatal injection was done on day 7. For stereotaxic injection of 6-hydroxy dopamine (6-OHDA, 8 ug), eight-week-old C57/BL6 mice treated either with hydrocortisone for 7 days or DMSO as a control were anesthetized with pentobarbital (60 mg/kg). An injection cannula (26.5 gauge) was applied stereotaxically into the striatum (anteroposterior, 0.5 mm from bregma; mediolateral, 2.0 mm; dorsoventral, 3.0 mm) unilaterally (applied into the right hemisphere). […] The head skin was closed by suturing and wound healing and recovery were monitored following surgery. […] Protein levels were quantified using the BCA kit (Pierce) with BSA standards and analyzed by immunoblot. […]
After scheduled treatments of hydrocortisone (0.4 mg/kg body weight, i.p. administration daily) in 6-OHDA intoxication models and control groups, animals were anesthetized with pentobarbital (50 mg/kg, intraperitoneal injection) and perfused with PBS followed by 4% paraformaldehyde (wt/vol in PBS). […] Total numbers of TH-positive neurons in substantia nigra pars compacta were counted using the Optical Fractionator probe of Stereo Investigator software (MicroBrightfield, Williston, Vt.). […]

Another assay relates to parkin. As to the kind of experiment: Parkin expression in mouse brain subregions after i.p. hydrocortisone (immunoblot). Conditions: striatum, ventral midbrain and cerebellum; i.p. 7 days; vs vehicle treated control mice; normalized to β-actin. The class given is in vivo. The method, then: The head skin was closed by suturing and wound healing and recovery were monitored following surgery. […] The brain was removed and processed for immunohistochemistry. […] After homogenization, samples were rotated at 4° C. for 30 min for complete lysis, then the homogenate was centrifuged at 52,000 rpm for 20 min, and the resulting fractions were collected. Protein levels were quantified using the BCA kit (Pierce) with BSA standards and analyzed by immunoblot. […] The densitometric analyses of the bands were performed using ImageJ (NIH, http://rsb.info.nih.gov/ij/).

For another assay, the system named is HEK 293T cell line. Briefly: Cell protecting effect against H2O2 oxidative stress cytotoxicity (Alamar blue assay). The format is cell-based, human. Conditions: cytotoxicity inhibition ratio relative to DMSO; 10 μM 48 hours, then H2O2 500 μM 90 minutes. As to the method: A cytotoxicity-induced model by application of oxidative stress to the HEK 293T cell line was used. 10 μM of each of the 22 compounds was applied to the HEK cell line and cultured at 37° C. and 5% CO2 for about 48 hours. H2O2 (Sigma-Aldrich, final concentration of 500 μM) was applied to the cultured cells and cultured at 37° C. and 5% CO2 for about 90 minutes. Thereafter, cells were collected and cytotoxicity was examined by Alamar blue® assay (Thermo Fisher Scientific).
The level of H2O2-induced cytotoxicity in cells treated with each of the 22 compounds was compared with cells treated with DMSO alone. 16 compounds having a significant cytotoxicity inhibitory effect (P<0.05) against oxidative stress were selected.
In Table 1, the values of luciferase activity and immunoblotting were expressed relative to DMSO, and the cell protecting effect (%) represents a cytotoxicity inhibition ratio, relative to DMSO. […] Further, “n” represents the number of experiments that were repeated, and “s.e.” represents standard error.
Background: Resazurin is reduced to fluorescent resorufin, in cell work by metabolically active cells.

For a further assay, the system named is human Parkin promoter. As to the kind of experiment: Parkin promoter luciferase screening in HEK-Parkin-Luc cell line. The format is cell-based. The conditions noted are these: relative to DMSO, 10 μM, about 24 hours. As to the method:
To identify compounds capable of inducing expression of Parkin protein at the promoter level, a pGL3-Parkin-Luc DNA construct was used (Cell Death and Differentiation, vol. 18, No. 5, p. 769-782, 2011.05 ). This construct was used to quantify the activity of human Parkin promoter by luminescence intensity due to a luciferase expression level. As a cell line, a human embryonic kidney cell line HEK-293T (ATCC), which maintains Parkin protein activity at a low level, was prepared.
Thereafter, 5 μg/ml of puromycin (Calbiochem) was added to the HEK-293T cells, and cultured at 37° C. and 5 % CO2 for about 21 days. Every 3 days, the medium was replaced by a fresh medium containing 5 μg/ml of puromycin. Stable cell lines were established from single colonies of the cultured cell line. A cell line showing stable luciferase activity was obtained, and designated as HEK-Parkin-Luc, which was used to screen for compounds capable of activating the Parkin promoter. […]
Then, the cultured cells were washed with PBS, and a luminescent substrate (Promega) was added. Luminescence intensity of the cells was measured using a microplate luminometer (Berthold Technologies), and luciferase activity relative to a negative control of 0.1% DMSO was calculated.

The test system of the next assay is Parkin protein. As to the kind of experiment: Immunoblotting of Parkin protein in HEK 293T cells. The format is cell-based, human. Conditions: Parkin protein relative to DMSO, 10 μM, about 48 hours. As to the method:
Among the 44 compounds selected in the initial screen described in 2, 22 compounds were examined to determine whether they increased expression of Parkin protein when they are applied to an HEK 293T cell line.
10 μM of each compound was added to the HEK 293T cells, and cultured at 37° C. and 5% CO2 for about 48 hours. The cultured cells were collected, and proteins were obtained from the cells. Anti-Parkin protein antibody (Cell signaling) and anti-beta actin antibody (Sigma-Aldrich) were used to perform immunoblotting, and an image of the immunoblotting is shown in FIG. 1.

The values that follow come from patent US20170157145A1, “SUBSTANCE INDUCING EXPRESSION OF PARKIN POLYPEPTIDE AND USE THEREOF” (Samsung Electronics Co., Ltd., priority 2015, published 2017).

As to `C[C@]12CCC(=O)C=C1CC[C@@H]1[C@@H]2[C@@H](O)C[C@@]2(C)[C@H]1CC[C@]2(O)C(=O)CO` [Hydrocortisone, (11β)-11,17,21-trihydroxypregn-4-ene-3,20-dione], the “downregulation of parkin's toxic substrate AIMP2” value in the assay on AIMP2 is 20%. In addition, in assay [1], the “dopaminergic neuronal survival against 6-OHDA intoxication” value was “markedly enhanced dopaminergic neuronal survival”. Further, the “increase of parkin expression” value with parkin is “approximately two fold”. For the same molecule, the “Cell protecting effect (%)” value in the assay with HEK 293T cell line turned out to be 35.53%. The molecule further registered a Luciferase activity in the assay on human Parkin promoter of 1.52. Besides, the Immunoblotting with Parkin protein turned out to be 1.11.

Turning to `O=C(c1ccccc1)c1ccc2n1CCC2C(=O)O` (racemic) [Ketorolac tromethamine, (±)-5-benzoyl-2,3-dihydro-1H-pyrrolizine-1-carboxylic acid], the “Cell protecting effect (%)” value with HEK 293T cell line worked out at 21.49%. Also, the Luciferase activity in the assay with human Parkin promoter is on record as 1.31. This molecule gave an Immunoblotting in the assay with Parkin protein of 1.95.
